{"source": "paper PMC10536928", "about": "“Discovery of New Pyrrolo[2,3-d]pyrimidine Derivatives as Potential Multi-Targeted Kinase Inhibitors and Apoptosis Inducers” (Pharmaceuticals, 2023)", "type_in_all_cases": "cell-based", "key": {"[1]": {"system": "mammary gland cancer (MCF-7)", "test": "MTT cytotoxicity assay", "details": "24 h exposure, mean ± SD of triplicate", "procedure": "(§1) The cytotoxic effects of compounds 5a–m were evaluated using a standard MTT method against four different cancer cell lines, namely mammary gland cancer (MCF-7), hepatocellular carcinoma (HepG2), breast cancer (MDA-MB-231), and epithelioid cervix carcinoma (HeLa). […] These findings highlight the potential of these compounds as candidates for further development as cytotoxic agents for cancer treatment.\n(§2) The cytotoxicity of compounds 5a–m was assessed against various cancer cell lines and one normal cell line using the described methodology. In brief, the cells were cultured in 96-well plates with a density of 1.0 × 10^4 cells per well, supplemented with 10% fetal bovine serum (FBS), an antibiotic cocktail, and RPMI 11,640 medium. The cells were then incubated for 48 h with 5% CO2 and 100% relative humidity at 37 °C. […] Following treatment, the addition of 20 µL of MTT solution was added to each well and incubation was continued for another 4 h, after which dimethyl sulfoxide (100 µL) was used to dissolve the resulting insoluble formazan. The absorbance was measured at 570 nm using a BioTek EXL 800 plate reader (Agilent Technologies, CA, USA). By comparing the absorbance of treated samples to untreated samples, the relative cell viability percentage was calculated as (A570 of treated samples/A570 of untreated sample) × 100. The IC50 values were determined based on triplicate measurements."}, "[2]": {"system": "breast cancer (MDA-MB-231)", "test": "MTT cytotoxicity assay", "details": "Homo sapiens, 24 h exposure, mean ± SD of triplicate", "procedure": "as §1, §2"}, "[3]": {"system": "hepatocellular carcinoma (HepG2)", "test": "MTT cytotoxicity assay", "details": "Homo sapiens, 24 h exposure, mean ± SD of triplicate", "procedure": "as §1, §2"}, "[4]": {"system": "caspase-3", "test": "Apoptotic protein levels assay (ELISA) in HepG2 cells", "description": "(§3) To validate the mechanism of cell death and the induction of apoptosis caused by compound 5k, the expression levels of some apoptotic proteins were investigated. […] Specifically, the levels of caspase-3 (6.9 folds higher than the control) and Bax (2.6 folds higher than the control) were higher in the group treated with 5k compared to the control group. Caspase-3 is a key enzyme involved in the execution of apoptosis, while Bax is a pro-apoptotic protein that promotes cell death. […] Bcl-2 is a protein that inhibits apoptosis, so the lower levels of Bcl-2 in the 5k treated group further support the notion that treatment with 5k may induce apoptosis in HepG2 cells. […] These findings may have implications for the development of novel therapies for diseases involving abnormal cell death, including cancer. Further studies are warranted in order to elucidate the underlying mechanisms of action of compound 5k and to assess its potential therapeutic applications.\n(§4) The ELISA technique was employed to assess the impact of compound 5k on the alteration of protein levels associated with caspase-3, BAX, and Bcl-2. Specifically, the following ELISA kits were utilized: KHO1091 (InvitrogenTM, Grand Island, NY, USA) for caspase-3, EIA-4860 and EIA-4487 for BAX, (DRU International INC., Mountainside, NJ, USA), and 99-0042 (InvitrogenTM, Grand Island, NY, USA) for Bcl-2 for the respective measurements. The experimental procedures were conducted according to the instructions provided by the manufacturers and our recently published article. Initially, HepG2 cells were cultured in triplicate in 96-well plates. Following a 24-h incubation period, the cells were subjected to various concentrations of compound 5k, while a control group was treated with 0.1% DMSO (V/V). After an additional 24-h incubation, the absorbance levels were assessed using a BioTek Synergy H1 Multi-mode Reader (Agilent Technologies, Santa Clara, CA, USA) at wavelengths ranging from 450 to 650 nm."}, "[5]": {"system": "Bcl-2", "test": "Apoptotic protein levels assay (ELISA) in HepG2 cells", "description": "as §3, §4"}, "[6]": {"system": "Bax", "test": "Apoptotic protein levels assay (ELISA) in HepG2 cells", "description": "as §3, §4"}}}
{"smiles": "O=C(N/N=C/c1ccc(Cl)c(Cl)c1)c1ccc(Nc2ncnc3[nH]ccc23)cc1", "note": "[Compound 5k, (E)-4-((7H-Pyrrolo[2,3-d]pyrimidin-4-yl)amino)-N’-(3,4-dichlorobenzylidene)benzohydrazide]", "values": [{"measurement": "IC50", "setting": "[1]", "result": "59.1 ± 3.5", "unit": "µM"}, {"measurement": "IC50", "setting": "[1]; Homo sapiens, MCF7, 24 h", "result": 60, "unit": "µM"}, {"measurement": "IC50", "setting": "[2]", "result": "51.4 ± 2.8", "unit": "µM"}, {"measurement": "IC50", "setting": "[3]", "result": "41.5 ± 2.6", "unit": "µM"}, {"measurement": "caspase-3 level, folds higher than the control", "setting": "[4]", "result": 6.9, "unit": "folds"}, {"measurement": "Protein Expression (Pg/mL) Caspase-3", "setting": "[4]; 24 h, ELISA, control 66.28 ± 4.66", "result": "453.8 ± 17.4", "unit": "pg/mL"}, {"measurement": "Bcl-2 level relative to the control", "setting": "[5]", "result": "two-fold lower than the control"}, {"measurement": "Protein Expression (Pg/mL) Bcl-2", "setting": "[5]; 24 h, ELISA, control 11.7 ± 0.36", "result": "5.146 ± 0.09", "unit": "pg/mL"}, {"measurement": "Bax level, folds higher than the control", "setting": "[6]", "result": 2.6, "unit": "folds"}, {"measurement": "Protein Expression (Pg/mL) Bax", "setting": "[6]; 24 h, ELISA, control 67.09 ± 4.94", "result": "173.8 ± 6.61", "unit": "pg/mL"}]}
